In PubChem BioAssay (NCI):
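Grown in 96-well plates, cells were treated for 48 hours with each compound at five concentrations. Insufficient inhibition: endpoint recorded as highest concentration tested. TGI denotes the concentration required for complete inhibition of growth.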

Assays:
Experiment in all cases: NCI anticancer screen, dose series, 48 h
MDA-N = system: MDA-N
NCI-H522 lung = system: NCI-H522 lung
EKVX NSCLC = system: EKVX NSCLC
TK-10 renal = system: TK-10 renal
OVCAR-5 ovarian = system: OVCAR-5 ovarian
SR leukemia = system: SR leukemia
NCI-H460 lung = system: NCI-H460 lung
SW-620 colon = system: SW-620 colon
MCF7 breast = system: MCF7 breast
IGROV1 ovarian = system: IGROV1 ovarian
SF-295 CNS = system: SF-295 CNS
MDA-MB-231 breast = system: MDA-MB-231 breast
OVCAR-3 ovarian = system: OVCAR-3 ovarian
HL-60(TB) leukemia = system: HL-60(TB) leukemia
SF-539 CNS = system: SF-539 CNS
MDA-MB-435 = system: MDA-MB-435
HS 578T breast = system: HS 578T breast
OVCAR-4 ovarian = system: OVCAR-4 ovarian
OVCAR-8 ovarian = system: OVCAR-8 ovarian
MALME-3M melanoma = system: MALME-3M melanoma
SF-268 CNS = system: SF-268 CNS
SNB-19 CNS = system: SNB-19 CNS
KM12 colon = system: KM12 colon
SNB-75 CNS = system: SNB-75 CNS
COLO 205 colon = system: COLO 205 colon
T-47D breast = system: T-47D breast
UO-31 renal = system: UO-31 renal
HCT-116 colon = system: HCT-116 colon
HCC-2998 colon = system: HCC-2998 colon
NCI-H226 lung = system: NCI-H226 lung
M14 melanoma = system: M14 melanoma
HT29 colon = system: HT29 colon
BT-549 breast = system: BT-549 breast
UACC-257 melanoma = system: UACC-257 melanoma
PC-3 prostate = system: PC-3 prostate
K-562 leukemia = system: K-562 leukemia
HOP-62 NSCLC = system: HOP-62 NSCLC
786-0 renal = system: 786-0 renal
DU-145 prostate = system: DU-145 prostate
SK-OV-3 ovarian = system: SK-OV-3 ovarian
A498 renal = system: A498 renal
NCI-H23 lung = system: NCI-H23 lung
ACHN renal = system: ACHN renal
SK-MEL-28 melanoma = system: SK-MEL-28 melanoma
U251 CNS = system: U251 CNS
RXF 393 renal = system: RXF 393 renal
SN12C renal = system: SN12C renal
UACC-62 melanoma = system: UACC-62 melanoma
HOP-92 NSCLC = system: HOP-92 NSCLC
CCRF-CEM leukemia = system: CCRF-CEM leukemia
MOLT-4 leukemia = system: MOLT-4 leukemia
HCT-15 colon = system: HCT-15 colon
A549 NSCLC = system: A549 NSCLC
SK-MEL-2 melanoma = system: SK-MEL-2 melanoma
CAKI-1 renal = system: CAKI-1 renal
NCI/ADR-RES ovarian = system: NCI/ADR-RES ovarian
LOX IMVI melanoma = system: LOX IMVI melanoma

CC1C2CC(C(S(=O)(=O)O)C2=O)C1(C)C (stereo unspecified)
TGI (MDA-N): > 100 µM
TGI (NCI-H522 lung): > 100 µM
TGI (EKVX NSCLC): > 100 µM
TGI (TK-10 renal): > 100 µM
TGI (OVCAR-5 ovarian): > 100 µM
TGI (SR leukemia): > 100 µM
TGI (NCI-H460 lung): > 100 µM
TGI (SW-620 colon): > 100 µM
TGI (MCF7 breast): > 100 µM
TGI (IGROV1 ovarian): > 100 µM
TGI (SF-295 CNS): > 100 µM
TGI (MDA-MB-231 breast): > 100 µM
TGI (OVCAR-3 ovarian): > 100 µM
TGI (HL-60(TB) leukemia): > 100 µM
TGI (SF-539 CNS): > 100 µM
TGI (MDA-MB-435): > 100 µM
TGI (HS 578T breast): > 100 µM
TGI (OVCAR-4 ovarian): > 100 µM
TGI (OVCAR-8 ovarian): > 100 µM
TGI (MALME-3M melanoma): > 100 µM
TGI (SF-268 CNS): > 100 µM
TGI (SNB-19 CNS): > 100 µM
TGI (KM12 colon): > 100 µM
TGI (SNB-75 CNS): > 100 µM
TGI (COLO 205 colon): > 100 µM
TGI (T-47D breast): > 100 µM
TGI (UO-31 renal): > 100 µM
TGI (HCT-116 colon): > 100 µM
TGI (HCC-2998 colon): > 100 µM
TGI (NCI-H226 lung): > 100 µM
TGI (M14 melanoma): > 100 µM
TGI (HT29 colon): > 100 µM
TGI (BT-549 breast): > 100 µM
TGI (UACC-257 melanoma): > 100 µM
TGI (PC-3 prostate): > 100 µM
TGI (K-562 leukemia): > 100 µM
TGI (HOP-62 NSCLC): > 100 µM
TGI (786-0 renal): > 100 µM
TGI (DU-145 prostate): > 100 µM
TGI (SK-OV-3 ovarian): > 100 µM
TGI (A498 renal): > 100 µM
TGI (NCI-H23 lung): > 100 µM
TGI (ACHN renal): > 100 µM
TGI (SK-MEL-28 melanoma): > 100 µM
TGI (U251 CNS): > 100 µM
TGI (RXF 393 renal): > 100 µM
TGI (SN12C renal): > 100 µM
TGI (UACC-62 melanoma): > 100 µM
TGI (HOP-92 NSCLC): > 100 µM
TGI (CCRF-CEM leukemia): > 100 µM
TGI (MOLT-4 leukemia): > 100 µM

CC(=O)OCC1OC(N2C(c3ccccc3)=CC(c3cccs3)C(C#N)=C2S)C(OC(C)=O)C(OC(C)=O)C1OC(C)=O (stereo unspecified)
TGI (MDA-N): > 100 µM
TGI (TK-10 renal): > 100 µM
TGI (OVCAR-5 ovarian): > 100 µM
TGI (NCI-H460 lung): > 100 µM
TGI (MCF7 breast): > 100 µM
TGI (IGROV1 ovarian): > 100 µM
TGI (SF-295 CNS): > 100 µM
TGI (MDA-MB-231 breast): > 100 µM
TGI (OVCAR-3 ovarian): > 100 µM
TGI (SF-539 CNS): > 100 µM
TGI (HS 578T breast): > 100 µM
TGI (HCT-15 colon): > 100 µM
TGI (SF-268 CNS): > 100 µM
TGI (SNB-19 CNS): > 100 µM
TGI (KM12 colon): > 100 µM
TGI (SNB-75 CNS): > 100 µM
TGI (A549 NSCLC): > 100 µM
TGI (COLO 205 colon): > 100 µM
TGI (T-47D breast): > 100 µM
TGI (SK-MEL-2 melanoma): > 100 µM
TGI (UO-31 renal): > 100 µM
TGI (HCT-116 colon): > 100 µM
TGI (HCC-2998 colon): > 100 µM
TGI (M14 melanoma): > 100 µM
TGI (CAKI-1 renal): > 100 µM
TGI (UACC-257 melanoma): > 100 µM
TGI (PC-3 prostate): > 100 µM
TGI (786-0 renal): > 100 µM
TGI (DU-145 prostate): > 100 µM
TGI (SK-OV-3 ovarian): > 100 µM
TGI (A498 renal): 42.9 µM
TGI (NCI/ADR-RES ovarian): > 100 µM
TGI (NCI-H23 lung): > 100 µM
TGI (ACHN renal): > 100 µM
TGI (U251 CNS): > 100 µM
TGI (RXF 393 renal): > 100 µM
TGI (LOX IMVI melanoma): > 100 µM
TGI (SN12C renal): > 100 µM
TGI (CCRF-CEM leukemia): > 100 µM
TGI (MOLT-4 leukemia): > 100 µM
